System: SW620
Experiment: cell viability relative to vehicle (resazurin, 96 h); higher = more viable
Description: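 SW620 WT or MTHFD2-/- cells were treated for 96 h with a compound dilution series (log10 M) in RPMI with normal or dialysed FBS. Viability was read by resazurin and is given as % of vehicle.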

CN(Cc1cnc2nc(N)nc(N)c2n1)c1ccc(C(=O)N[C@@H](CCC(=O)O)C(=O)O)cc1 [methotrexate]
Conditions | cell viability [%]
log10 compound concentration (M): -6.43136, supplement / serum: Hypoxanthine + AICAr 100μM, base medium: RPMI + dialysed FBS | 6.81
log10 compound concentration (M): -6.43136, supplement / serum: Hypoxanthine, base medium: RPMI + dialysed FBS | 5.56
log10 compound concentration (M): -6.43136, supplement / serum: RPMI + Dialyzed FBS + 50μM Hypoxanthine, base medium: RPMI-1640 | 7.77
log10 compound concentration (M): -6.43136, supplement / serum: RPMI + Dialyzed FBS, base medium: RPMI-1640 | 4.63
log10 compound concentration (M): -6.43136, supplement / serum: RPMI + Normal FBS, base medium: RPMI-1640 | 17
log10 compound concentration (M): -6.43136, supplement / serum: Vehicle, base medium: RPMI + dialysed FBS | 4.16
log10 compound concentration (M): -6.90849, supplement / serum: Hypoxanthine + AICAr 10μM, base medium: RPMI + dialysed FBS | 7.03
log10 compound concentration (M): -6.90849, supplement / serum: Hypoxanthine + AICAr 30μM, base medium: RPMI + dialysed FBS | 5.61
log10 compound concentration (M): -6.90849, supplement / serum: Hypoxanthine + AICAr 50μM, base medium: RPMI + dialysed FBS | 6.93
log10 compound concentration (M): -6.90849, supplement / serum: Hypoxanthine + AICAr 100μM, base medium: RPMI + dialysed FBS | 6.51
log10 compound concentration (M): -6.90849, supplement / serum: Hypoxanthine, base medium: RPMI + dialysed FBS | 5.78
log10 compound concentration (M): -6.90849, supplement / serum: RPMI + Dialyzed FBS + 50μM Hypoxanthine, base medium: RPMI-1640 | 8.66
log10 compound concentration (M): -6.90849, supplement / serum: RPMI + Dialyzed FBS, base medium: RPMI-1640 | 5.1
log10 compound concentration (M): -6.90849, supplement / serum: RPMI + Normal FBS, base medium: RPMI-1640 | 20.5
log10 compound concentration (M): -6.90849, supplement / serum: Vehicle, base medium: RPMI + dialysed FBS | 4.6
log10 compound concentration (M): -7.38561, supplement / serum: Hypoxanthine + AICAr 10μM, base medium: RPMI + dialysed FBS | 15.3
log10 compound concentration (M): -7.38561, supplement / serum: Hypoxanthine + AICAr 30μM, base medium: RPMI + dialysed FBS | 7.88
log10 compound concentration (M): -7.38561, supplement / serum: Hypoxanthine + AICAr 50μM, base medium: RPMI + dialysed FBS | 10.8
log10 compound concentration (M): -7.38561, supplement / serum: Hypoxanthine + AICAr 100μM, base medium: RPMI + dialysed FBS | 9.102
log10 compound concentration (M): -7.38561, supplement / serum: Hypoxanthine, base medium: RPMI + dialysed FBS | 14.7
log10 compound concentration (M): -7.38561, supplement / serum: RPMI + Dialyzed FBS + 50μM Hypoxanthine, base medium: RPMI-1640 | 24.7
log10 compound concentration (M): -7.38561, supplement / serum: RPMI + Dialyzed FBS, base medium: RPMI-1640 | 5.71
log10 compound concentration (M): -7.38561, supplement / serum: RPMI + Normal FBS, base medium: RPMI-1640 | 42.8
log10 compound concentration (M): -7.38561, supplement / serum: Vehicle, base medium: RPMI + dialysed FBS | 4.77
log10 compound concentration (M): -7.86273, supplement / serum: Hypoxanthine + AICAr 10μM, base medium: RPMI + dialysed FBS | 103
log10 compound concentration (M): -7.86273, supplement / serum: Hypoxanthine + AICAr 30μM, base medium: RPMI + dialysed FBS | 75.9
log10 compound concentration (M): -7.86273, supplement / serum: Hypoxanthine + AICAr 50μM, base medium: RPMI + dialysed FBS | 65.1
log10 compound concentration (M): -7.86273, supplement / serum: Hypoxanthine + AICAr 100μM, base medium: RPMI + dialysed FBS | 39.1
log10 compound concentration (M): -7.86273, supplement / serum: Hypoxanthine, base medium: RPMI + dialysed FBS | 92.6
log10 compound concentration (M): -7.86273, supplement / serum: RPMI + Dialyzed FBS + 50μM Hypoxanthine, base medium: RPMI-1640 | 85
log10 compound concentration (M): -7.86273, supplement / serum: RPMI + Dialyzed FBS, base medium: RPMI-1640 | 15.5
log10 compound concentration (M): -7.86273, supplement / serum: RPMI + Normal FBS, base medium: RPMI-1640 | 53.8
log10 compound concentration (M): -7.86273, supplement / serum: Vehicle, base medium: RPMI + dialysed FBS | 10.7
log10 compound concentration (M): -8.33985, supplement / serum: Hypoxanthine + AICAr 10μM, base medium: RPMI + dialysed FBS | 117
log10 compound concentration (M): -8.33985, supplement / serum: Hypoxanthine + AICAr 30μM, base medium: RPMI + dialysed FBS | 93.6
log10 compound concentration (M): -8.33985, supplement / serum: Hypoxanthine + AICAr 50μM, base medium: RPMI + dialysed FBS | 119.7
log10 compound concentration (M): -8.33985, supplement / serum: Hypoxanthine + AICAr 100μM, base medium: RPMI + dialysed FBS | 92.9
log10 compound concentration (M): -8.33985, supplement / serum: Hypoxanthine, base medium: RPMI + dialysed FBS | 99.3
log10 compound concentration (M): -8.33985, supplement / serum: RPMI + Dialyzed FBS + 50μM Hypoxanthine, base medium: RPMI-1640 | 99.18
log10 compound concentration (M): -8.33985, supplement / serum: RPMI + Dialyzed FBS, base medium: RPMI-1640 | 72.4
log10 compound concentration (M): -8.33985, supplement / serum: RPMI + Normal FBS, base medium: RPMI-1640 | 95.4
log10 compound concentration (M): -8.33985, supplement / serum: Vehicle, base medium: RPMI + dialysed FBS | 109
log10 compound concentration (M): -8.81697, supplement / serum: Hypoxanthine + AICAr 10μM, base medium: RPMI + dialysed FBS | 117
log10 compound concentration (M): -8.81697, supplement / serum: Hypoxanthine + AICAr 30μM, base medium: RPMI + dialysed FBS | 98.4
log10 compound concentration (M): -8.81697, supplement / serum: Hypoxanthine + AICAr 50μM, base medium: RPMI + dialysed FBS | 108
log10 compound concentration (M): -8.81697, supplement / serum: Hypoxanthine + AICAr 100μM, base medium: RPMI + dialysed FBS | 90.3
log10 compound concentration (M): -8.81697, supplement / serum: Hypoxanthine, base medium: RPMI + dialysed FBS | 100
log10 compound concentration (M): -8.81697, supplement / serum: RPMI + Dialyzed FBS + 50μM Hypoxanthine, base medium: RPMI-1640 | 102
log10 compound concentration (M): -8.81697, supplement / serum: RPMI + Dialyzed FBS, base medium: RPMI-1640 | 86.4
log10 compound concentration (M): -8.81697, supplement / serum: RPMI + Normal FBS, base medium: RPMI-1640 | 97.4
log10 compound concentration (M): -8.81697, supplement / serum: Vehicle, base medium: RPMI + dialysed FBS | 119
log10 compound concentration (M): -9.29409, supplement / serum: 50 μM Hypoxanthine + 50 μM Thymidine, base medium: RPMI + dialysed FBS | 93.5
log10 compound concentration (M): -9.29409, supplement / serum: Hypoxanthine + AICAr 10μM, base medium: RPMI + dialysed FBS | 118
log10 compound concentration (M): -9.29409, supplement / serum: Hypoxanthine + AICAr 30μM, base medium: RPMI + dialysed FBS | 105
log10 compound concentration (M): -9.29409, supplement / serum: Hypoxanthine + AICAr 50μM, base medium: RPMI + dialysed FBS | 113
log10 compound concentration (M): -9.29409, supplement / serum: Hypoxanthine + AICAr 100μM, base medium: RPMI + dialysed FBS | 102
log10 compound concentration (M): -9.29409, supplement / serum: Hypoxanthine, base medium: RPMI + dialysed FBS | 97.3
log10 compound concentration (M): -9.29409, supplement / serum: RPMI + Dialyzed FBS + 50μM Hypoxanthine, base medium: RPMI-1640 | 96.1
log10 compound concentration (M): -9.29409, supplement / serum: RPMI + Dialyzed FBS, base medium: RPMI-1640 | 98.9
log10 compound concentration (M): -9.29409, supplement / serum: RPMI + Normal FBS, base medium: RPMI-1640 | 99.1
log10 compound concentration (M): -9.29409, supplement / serum: Vehicle, base medium: RPMI + dialysed FBS | 112
log10 compound concentration (M): -9.77121, supplement / serum: Hypoxanthine + AICAr 10μM, base medium: RPMI + dialysed FBS | 112.06
log10 compound concentration (M): -9.77121, supplement / serum: Hypoxanthine + AICAr 30μM, base medium: RPMI + dialysed FBS | 94.8
log10 compound concentration (M): -9.77121, supplement / serum: Hypoxanthine + AICAr 50μM, base medium: RPMI + dialysed FBS | 120.1
log10 compound concentration (M): -9.77121, supplement / serum: Hypoxanthine + AICAr 100μM, base medium: RPMI + dialysed FBS | 98.9
log10 compound concentration (M): -9.77121, supplement / serum: Hypoxanthine, base medium: RPMI + dialysed FBS | 101
log10 compound concentration (M): -9.77121, supplement / serum: RPMI + Dialyzed FBS + 50μM Hypoxanthine, base medium: RPMI-1640 | 94.8
log10 compound concentration (M): -9.77121, supplement / serum: RPMI + Dialyzed FBS, base medium: RPMI-1640 | 96.3
log10 compound concentration (M): -9.77121, supplement / serum: RPMI + Normal FBS, base medium: RPMI-1640 | 88.1
log10 compound concentration (M): -9.77121, supplement / serum: Vehicle, base medium: RPMI + dialysed FBS | 114
